Assay results reported in PubChem BioAssay (NCI).
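A five-concentration, 48-hour dose response in 96-well plates underlies each endpoint, interpolated linearly between surrounding concentrations. GI50 is the concentration that inhibits growth by half. TGI: concentration producing complete growth inhibition.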

Columns and labels:
Assay in all cases: inhibition of tumour cell growth, NCI panel, 48 h
[1] = tested on: 786-0 renal
[2] = tested on: A498 renal
[3] = tested on: A549 NSCLC
[4] = tested on: ACHN renal
[5] = tested on: BT-549 breast
[6] = tested on: CCRF-CEM leukemia
[7] = tested on: COLO 205 colon
[8] = tested on: DU-145 prostate
[9] = tested on: EKVX NSCLC
[10] = tested on: HCC-2998 colon
[11] = tested on: HCT-116 colon
[12] = tested on: HCT-15 colon
[13] = tested on: HL-60(TB) leukemia
[14] = tested on: HOP-62 NSCLC
[15] = tested on: HOP-92 NSCLC
[16] = tested on: HS 578T breast
[17] = tested on: HT29 colon
[18] = tested on: IGROV1 ovarian
[19] = tested on: K-562 leukemia
[20] = tested on: KM12 colon
[21] = tested on: LOX IMVI melanoma
[22] = tested on: M14 melanoma
[23] = tested on: MALME-3M melanoma
[24] = tested on: MCF7 breast
[25] = tested on: MDA-MB-231 breast
[26] = tested on: MDA-MB-435
[27] = tested on: MOLT-4 leukemia
[28] = tested on: NCI-H226 lung

Question: How did the GI50 [1] turn out when `C=C1C(=O)O[C@H]2[C@H]1CC/C(COC(=O)c1ccccc1)=C\CC[C@@]1(C)O[C@@H]21` was run?
Answer: 1460 nM

Question: And the TGI [1]?
Answer: 3080 nM

Question: What about the GI50 [2] of the same compound?
Answer: 16800 nM

Question: What about the TGI [2] of the same compound?
Answer: 30800 nM

Question: And the GI50 [3]?
Answer: 3330 nM

Question: What about the TGI [3] of the same compound?
Answer: 13000 nM

Question: And the GI50 [4]?
Answer: 1370 nM

Question: And the TGI [4]?
Answer: 2860 nM

Question: What about the GI50 [5] of the same compound?
Answer: 1230 nM

Question: And the TGI [5]?
Answer: 2940 nM

Question: And the GI50 [6]?
Answer: 281 nM

Question: And the TGI [6]?
Answer: 1300 nM

Question: What about the GI50 [7] of the same compound?
Answer: 1370 nM

Question: What about the TGI [7] of the same compound?
Answer: 3140 nM

Question: And the GI50 [8]?
Answer: 1060 nM

Question: What about the TGI [8] of the same compound?
Answer: 2290 nM

Question: And the GI50 [9]?
Answer: 1850 nM

Question: What about the TGI [9] of the same compound?
Answer: 4460 nM

Question: And the GI50 [10]?
Answer: 2350 nM

Question: And the TGI [10]?
Answer: 4950 nM

Question: And the GI50 [11]?
Answer: 469 nM

Question: And the TGI [11]?
Answer: 1820 nM

Question: What about the GI50 [12] of the same compound?
Answer: 800 nM

Question: And the TGI [12]?
Answer: 2300 nM

Question: And the GI50 [13]?
Answer: 981 nM

Question: And the TGI [13]?
Answer: 3950 nM

Question: And the GI50 [14]?
Answer: 2960 nM

Question: What about the TGI [14] of the same compound?
Answer: 14100 nM

Question: What about the GI50 [15] of the same compound?
Answer: 984 nM

Question: And the TGI [15]?
Answer: 2610 nM

Question: And the GI50 [16]?
Answer: 2560 nM

Question: And the TGI [16]?
Answer: 14800 nM

Question: And the GI50 [17]?
Answer: 412 nM

Question: And the TGI [17]?
Answer: 2100 nM

Question: And the GI50 [18]?
Answer: 787 nM

Question: And the TGI [18]?
Answer: 2660 nM

Question: What about the GI50 [19] of the same compound?
Answer: 451 nM

Question: And the TGI [19]?
Answer: 13000 nM

Question: And the GI50 [20]?
Answer: 2570 nM

Question: And the TGI [20]?
Answer: 8420 nM

Question: And the GI50 [21]?
Answer: 1320 nM

Question: And the TGI [21]?
Answer: 2740 nM

Question: And the GI50 [22]?
Answer: 1320 nM

Question: And the TGI [22]?
Answer: 3270 nM

Question: What about the GI50 [23] of the same compound?
Answer: 1820 nM

Question: And the TGI [23]?
Answer: 3860 nM

Question: And the GI50 [24]?
Answer: 497 nM

Question: What about the TGI [24] of the same compound?
Answer: 2040 nM

Question: And the GI50 [25]?
Answer: 1690 nM

Question: And the TGI [25]?
Answer: 4360 nM

Question: And the GI50 [26]?
Answer: 1340 nM

Question: What about the TGI [26] of the same compound?
Answer: 3240 nM

Question: What about the GI50 [27] of the same compound?
Answer: 2140 nM

Question: And the TGI [27]?
Answer: 7570 nM

Question: And the GI50 [28]?
Answer: 1620 nM

Question: What about the TGI [28] of the same compound?
Answer: 3740 nM
